Data reported in publication PMC5838106, “Cathelicidin promotes inflammation by enabling binding of self-RNA to cell surface scavenger receptors” (Scientific Reports, 2018).
Where no end group is shown, it is not given here.

Assays:
Assay type in all cases: cell-based, human
THP1 cells = assay: Cytokine expression in PMA-treated THP1 cells stimulated with cathelicidin peptide and U1 RNA; conditions: PMA-treated THP1, peptide 3 μM 10 minutes, then U1 RNA 12.5 μg/mL overnight; n = 3
Experimental: Figure 1 Inflammatory activity of cathelicidin can be dissociated from antimicrobial function (a) Transcriptomic analysis by RNASeq of primary cultures of normal human epidermal keratinocytes (NHEKs) treated with LL37 (2.5 μM) with or without U1 RNA (2.5 μg/mL) for 24 hours. Shown are gene sets induced > 2 fold over vehicle, and after treatment with LL37, U1 RNA, or the combination of LL37 + U1 RNA. (b) Gene Ontology analysis of gene sets from (a). The number of genes related to each biological process is indicated in parentheses. (c) Amino acid sequence of synthetic cathelicidin peptides used in this study. (d) Antimicrobial assay of cathelicidin peptides against group A streptococcus (GAS). GAS were incubated with various concentrations of each peptide (0–25 μM) for 6 hours, then surviving colonies counted after plating on Todd Hewitt Broth gel. (e) IFN-β1 mRNA abundance and (f) IL-6 mRNA abundance in NHEKs after treatment with cathelicidin peptides (2.5 μM) for 10 minutes, then stimulated with U1 RNA (2.5 μg/mL) for a further 6 hours. (n = 3). (g) IFN-β1 mRNA abundance and (h) IL-6 mRNA abundance in […] (PMA)-treated THP1 cells after treatment with cathelicidin peptides (3 μM) for 10 minutes, then stimulated with U1 RNA (12.5 μg/mL) overnight. (n = 3). Data presented are from one representative experiment of at least two independent experiments. Error bars are SEM of three biological replicates. *P < 0.05, **P < 0.01, ***P < 0.001 by two-way ANOVA with Bonferroni’s post-hoc test. See also Fig. S1.
Primary neonatal human epidermal keratinocytes (NHEKs) was purchased from ThermoFisher Scientific. NHEKs were grown in serum free EpiLife medium supplemented with 0.06 mM CaCl2, EpiLife Defined growth supplements (EDGS) (ThermoFisher Scientific) and antibiotics, and passage 3–5 cells were used for experiment. Cells at 60–80% confluence were starved overnight without EDGS prior to treatment. THP1 was purchased from American Type Culture Collection (ATCC) (Manassas, VA). THP1 was cultured in RPMI-1640 (Sigma) supplemented with 10% Hyclone fetal calf serum (Thermofisher Scientific), and antibiotics, and passage 3–5 cells were used for experiment. Cells at 60–80% confluence were differentiated by Phorbol 12-myristate 13-acetate (PMA, Sigma) for 24 hours and then starved overnight without Hyclone fetal calf serum prior to treatment.
RNA was isolated from NHEKs using Purelink RNA isolation columns (ThermoFisher Scientific) according to the manufacturer’s instructions. RNA was quantified using a Nanodrop spectrophotometer (ThermoFisher Scientific), and up to 500 ng of RNA was reverse-transcribed using the iScript cDNA synthesis kit (Bio-Rad, Irvine, CA). Quantitative real-time PCR reactions were run on a CFX96 real-time detection system (Bio-Rad) using gene-specific primers and TaqMan probes (ThermoFisher Scientific). PCR primers and probes are shown on Table S2.

NHEKs [1] = assay: U1 RNA binding to the cell at 4 °C (immunocytofluorescence); conditions: 1 hour, peptide 2.5 μM
Excerpt: (§1) Figure 2 Structure and cell binding of cathelicidin and dsRNA. (a) Structures of LL37, LL34, and LL34(I20P) bound to dsRNA were solved using SAXS. SAXS data is plotted as the scattering intensity I(q) vs. the momentum transfer vector q. LL34 (blue) and LL34(I20P) (green) condense dsRNA into square lattices with first peak positions of q10 = 0.167 Å^−1 and 0.170 Å^−1, respectively. Higher order Bragg reflections due to scattering of the square lattice of LL34 and LL34(I20P) are labeled for both complexes. In comparison, LL37 (magenta) condenses dsRNA into a columnar lattice with short-ranged order, with a first peak position of q1 = 0.172 Å^−1. (b) Linear fits of Bragg peak positions indicate that LL34-dsRNA (blue) and LL34(I20P)-dsRNA (green) complexes have inter-dsRNA spacings of 3.76 nm and 3.70 nm, respectively. Each reflection corresponding to the peaks in a for LL34 and LL34(I20P) are labeled. Close overlap of the two linear fits indicate that LL34-dsRNA and LL34(I20P)-dsRNA complexes have similar unit cell structures and inter-dsRNA spacings. End-on views along the dsRNA long-axis of the columnar (c) LL37-dsRNA and (d) LL34-dsRNA or LL34(I20P)-dsRNA complexes are shown. In (d), LL34-dsRNA and LL34(I20P)-dsRNA both form square columnar structures with similar unit cell architectures. […]

NHEKs [2] = assay: U1 RNA co-association with early endosome (EEA1) in NHEKs; conditions: 37 °C, 4 hours
Excerpt: as §1

Substance: LLGDFFRKSKEKIGKEFKRIVQRIKDFLRNLVPR [LL34]
- capacity to enable U1 RNA to amplify IFN-β1 or IL-6 expression (THP1 cells): large responses
- capacity to enable U1 RNA to bind to the cell (NHEKs [1]): showed the capacity to enable U1 RNA to bind to the cell
- co-association of U1 RNA with the early endosome (NHEKs [2]): induced partial co-association with the early endosome

Substance: LL37
- capacity to enable U1 RNA to amplify IFN-β1 or IL-6 expression (THP1 cells): large responses
- capacity to enable U1 RNA to bind to the cell (NHEKs [1]): showed the capacity to enable U1 RNA to bind to the cell
- co-association of U1 RNA with the early endosome (NHEKs [2]): induced partial co-association with the early endosome
